PubChem BioAssay AID1996
Values after ≈ are worked out from the molar mass of the structure shown.

Conditions: buffer; pH 7.4; 200.0 µM

| Structure (SMILES) | solubility kinetic [µg/mL] |
| --- | --- |
| O=S(=O)(c1cccs1)N1CN(C2CCCC2)c2nc3ccccc3nc21 | 8.1 (≈ 21 µM) |
| Cc1ccc(C(=O)Nc2ccc(Nc3ccccc3)cc2)cc1C | 2.3 (≈ 7.27 µM) |
| O=C(Nc1cc(S(=O)(=O)N2CCCCC2)ccc1Cl)C1COc2ccccc2O1 (stereo not given) | 5.4 (≈ 12.4 µM) |
| O=C(O)C(=O)O.c1ccc(CNC23CC4CC(CC(C4)C2)C3)nc1 | 45.8 |
| COc1ccc2oc(C(=O)OCC(=O)NC3CCCC3)c(C)c2c1 | 6.7 (≈ 20.2 µM) |
| COc1ccccc1NC(=O)COC(=O)c1ccccn1 | > 42.9 |
| CCC(=O)N(CCC(c1ccco1)C(C)C)Cc1ccccc1 (stereo not given) | 23.7 (≈ 75.6 µM) |
| COc1cc(C)ccc1Oc1nc(-c2ccccc2O)nc2ccccc12 | < 0.4 |
| COc1cc2c(cc1OC)CN(C(=O)c1ccc([N+](=O)[O-])o1)CC2 | > 49.8 |
| O=[N+]([O-])c1ccc(Cl)c(CN2CCCCCC2)c1 | 13.8 (≈ 51.3 µM) |
| O=C(N/N=C/c1cccnc1)c1ccccc1Br | > 45.6 |
| NC(=O)CCS(=O)(=O)c1ccc(Cl)cc1 | > 37.2 |
| CCOC(=O)c1c(C)n(C(C)C)c2ccc(OC)cc12 | 15.1 (≈ 54.8 µM) |
| Cc1ccccc1CC(=O)N1CCOCC1 | > 32.9 |
| COc1ccccc1CC(=O)Nc1cc(C)ccn1 | > 38.4 |
| Cc1ccc(-c2noc(CCCC(=O)NC3CCCCC3)n2)cc1 | 7.8 (≈ 23.8 µM) |
| Cc1cc(=O)oc(C)c1C(=O)Nc1ccc(F)cc1 | > 39.2 |
| COc1ccc(NC(=O)CS(=O)(=O)c2ccc(F)cc2)cc1 | 46.9 (≈ 145 µM) |
| CC1(C)CC(=O)C=C(NNC(=O)c2cccnc2)C1 | > 38.9 |
| Cc1cc(NC(=O)CN2C(=O)NC(C)(c3ccccc3Cl)C2=O)no1 (stereo not given) | 28 (≈ 77.2 µM) |
| COc1ccc(C(=O)Nc2ccc(S(=O)(=O)N3CCOCC3)cc2)cc1 | 2.9 (≈ 7.7 µM) |
| CCN1CCN(CC(=O)c2ccc(C)cc2)CC1 | 32.4 (≈ 132 µM) |
| CC(C)Oc1ccc(C(=O)Nc2ccc([N+](=O)[O-])cc2)cc1 | < 0.3 |
| Cc1c(Cl)cccc1NC(=O)c1cc(-c2ccco2)on1 | 0.8 (≈ 2.64 µM) |

| Structure (SMILES) | solubility kinetic [µg/mL] |
| --- | --- |
| Cc1csc(=O)n1CCC(=O)N(C)Cc1c(F)cccc1Cl | > 51.4 |
| COc1cccc(OCCNC(=O)Nc2cc(F)c(F)cc2Cl)c1 | < 0.4 |
| CC(NC(=O)c1ccco1)C(=O)OC(C)C(=O)NCc1ccccc1 (stereo not given) | 46.3 (≈ 134 µM) |
| O=C(NCCC(=O)N1CCc2ccccc21)c1ccccc1Cl | 32.1 (≈ 97.6 µM) |
| CCOC(=O)c1cn(CC#N)c2cc(F)c(F)cc2c1=O | > 43.8 |
| COc1cc(C=O)ccc1OC(=O)N1CCOCC1 | > 39.8 |
| CC(NC(=S)NC(=O)c1ccccc1Br)c1ccccc1 (stereo not given) | 4.9 (≈ 13.5 µM) |
| c1ccc(CNc2nc(-c3ccccc3)nc3ccccc23)cc1 | 1.2 (≈ 3.85 µM) |
| CC(=O)N1CCN(C(=O)CNC(=O)c2ccc(C)s2)CC1 | > 46.4 |
| Cc1cccc(Nc2nc(CC(=O)O)cs2)c1 | 24.6 (≈ 99.1 µM) |
| COc1ccc(OC)c(N(CC(=O)N2CCCC2)S(C)(=O)=O)c1 | > 51.4 |
| CC(C)(C(=O)c1cccnc1)c1cccnc1 | > 33.9 |
| O=C(Nc1cccnc1)c1cc2cc(Br)ccc2o1 | 0.9 (≈ 2.84 µM) |
| CCOC(=O)c1sc2nc(C)nc(N3CCN(S(=O)(=O)c4ccccc4)CC3)c2c1C | 2.5 (≈ 5.43 µM) |
| Cc1ccc(NC(=O)c2ccc(S(=O)(=O)N3CCOCC3)cc2)cc1 | 3.6 (≈ 9.99 µM) |
| CCCNC(=O)c1ccc2c(c1)ncn2-c1cc(C)cc(C)c1 | 38.4 (≈ 125 µM) |
| COc1ccccc1CNC(=O)CN(C)CC(=O)Nc1ccc(F)c(F)c1F | > 59.3 |
| COc1ccccc1NC(=O)C1CCN(S(C)(=O)=O)CC1 | > 46.9 |
| Cc1ccc(S(=O)(=O)NC2CC(C)(C)NC(C)(C)C2)c(C)c1C | 42.6 (≈ 126 µM) |
| CN(C)C(=S)Nc1ccc(Br)c(Cl)c1 | 37 (≈ 126 µM) |
| O=C(Cn1cncn1)NCCCc1ccccc1 | > 36.6 |
| O=C(NN1C(=O)NC2(CCCCC2)C1=O)c1cccs1 | > 44 |
| O=c1[nH]c(/C=C\c2cccc(Cl)c2)nc(O)c1[N+](=O)[O-] | > 44.1 |
| O=C(Nc1nccs1)c1ccc(-c2ccccc2[N+](=O)[O-])o1 | 5.6 (≈ 17.8 µM) |

| Structure (SMILES) | solubility kinetic [µg/mL] |
| --- | --- |
| N#CCCN(Cc1cccnc1)C(=S)NCc1ccco1 | > 45.1 |
| CCn1c(/C=C/c2ccccc2F)nc2ccccc2c1=O | 2.2 (≈ 7.47 µM) |
| [Cl-].c1ccc(CNc2cccc[nH+]2)cc1 | > 33.1 |
| O=C(Nc1ccncc1)Nc1cccc(Cl)c1 | 35.9 (≈ 145 µM) |
| CN(Cc1cccc(F)c1)C(=O)C1CC(=O)N(c2ccc3c(c2)OCCO3)C1 (stereo not given) | > 57.7 |
| COC(=O)C1=C(C)NC(=O)NC1c1ccc2c(c1)OCO2 (stereo not given) | 37.3 (≈ 128 µM) |
| COC(=O)c1sccc1NC(=O)c1ccccc1C(=O)O | 39.8 (≈ 130 µM) |
| COc1ccc(CNC(=O)COc2ccc(OC)cc2)cc1 | 35.8 (≈ 119 µM) |
| CCC1(c2ccc(Cl)cc2)NC(=O)N(CC(=O)N2CCN(C(=O)c3ccco3)CC2)C1=O (stereo not given) | > 68.8 |
| O=C(NCCc1ccccc1F)C1CC(=O)N(c2ccccc2)C1 (stereo not given) | 47.8 (≈ 146 µM) |
| Cc1cccc(C(=O)NCC(=O)N(C)Cc2nc3ccccc3c(=O)[nH]2)c1 | > 54.7 |
| Cc1nn(CC(=O)NC2(C)CCS(=O)(=O)C2)c(C)c1S(=O)(=O)N(C)C (stereo not given) | > 58.9 |
| Cc1cc(NC(=O)C(Cl)c2ccccc2)no1 (stereo not given) | > 37.6 |
| Cc1ccc(NC(=O)CSc2ccc3c(c2)OCCO3)c(O)c1 | 36.9 (≈ 111 µM) |
| OC(CNC1Cc2ccccc2C1)c1ccccc1 (stereo not given) | > 38 |
| O=C(NC1CC1)c1ccc(-n2cccc2)cc1 | 17.4 (≈ 76.9 µM) |
| Cc1ccc(S(=O)(=O)NCc2ccccc2C)cc1 | 20.4 (≈ 74.1 µM) |
| Cc1cccc(NC(=O)C2C3CCCCC32)c1 (stereo not given) | 3 (≈ 13.1 µM) |
| CSc1nc2c(C)c(C)c(C)c(C)c2[nH]1 | 3.2 (≈ 14.5 µM) |
| Cc1onc(-c2ccccc2)c1NC(=O)N(CCC#N)Cc1cccs1 | 54.4 (≈ 148 µM) |
| Clc1ccccc1OCCCCN1CCCCC1 | 39.9 (≈ 149 µM) |
| COc1ccc(NC(=O)c2cc(-c3ccco3)nc3ccccc23)cc1 | < 0.4 |
| COc1ccc(NC(=O)CSc2ccc(NC(C)=O)cc2)cc1S(=O)(=O)N1CCOCC1 | > 71.9 |
| CCOC(=O)c1c(NC(=S)N2CCOCC2)sc(C)c1C | < 0.4 |

| Structure (SMILES) | solubility kinetic [µg/mL] |
| --- | --- |
| CC1CCCCN1CCn1c(=S)[nH]c2cc3c(cc2c1=O)OCO3 (stereo not given) | > 52.1 |
| Cc1ccc([N+](=O)[O-])c(NC(=O)COC(=O)C2CC3CCCC(C2)C3=O)c1C (stereo not given) | > 58.3 |
| O=C(COC(=O)c1c(Cl)cccc1Cl)NCC1CCCO1 (stereo not given) | > 49.8 |
| c1coc(CNc2nc3ccccc3s2)c1 | 32.3 (≈ 140 µM) |
| CCNC(=O)C1CCCN1S(=O)(=O)c1ccc2ccccc2c1 (stereo not given) | > 49.9 |
| CCN1CCN(C(=O)Cc2ccc(C)cc2)CC1 | > 37 |
| CN(c1cccc(NC(=O)c2ccc(C(C)(C)C)cc2)c1)S(C)(=O)=O | < 0.4 |
| CC(C)OCC(O)CN1CCC(Cc2ccccc2)CC1.Cl (stereo not given) | > 49.2 |
| CC(C)NC(=O)c1ccc(CN2CCc3ccccc3C2)cc1 | 2.6 (≈ 8.43 µM) |
| COc1ccc(/C=C/C(=O)NC(=S)N2CCCCC2)cc1OC | > 50.2 |
| Cc1ccc(C(=O)OC(C)C(=O)NC2CCCCC2C)s1 (stereo not given) | 14.6 (≈ 47.2 µM) |
| FC(F)(F)c1ccc(NC2=NCCCS2)cc1 | 15.6 (≈ 59.9 µM) |
| COc1ccc(NC(=O)Nc2c(SC)nsc2SC)cc1 | 1.8 (≈ 5.27 µM) |
| Cc1c(NC(=O)COC(=O)C2=COCCO2)cccc1[N+](=O)[O-] | > 48.3 |
| CC(C)C1Nc2ccc(C(=O)O)cc2C2C=CCC21 (stereo not given) | > 38.6 |
| O=C(/C=C/c1cccc(F)c1)OCC(=O)N1CCc2ccccc21 | 3.2 (≈ 9.84 µM) |
| C=CCNC(=S)Nc1cccc(N)c1 | > 31.1 |
| COc1ccc(Nc2c3c(nc4ccccc24)CCC3)c(OC)c1 | > 48.1 |
| COc1ccc(N2CCN(C(=O)NC(=O)c3ccc(Cl)cc3)CC2)cc1 | 3.1 (≈ 8.29 µM) |
| CNCCc1ccccn1.Cl | > 31.4 |
| C=CCOCC(O)Cn1c(N2CCCC2)nc2c1c(=O)[nH]c(=O)n2C (stereo not given) | > 52.4 |
| Cc1ccc(C)c(NC(=O)NC2CCCCCCC2)c1 | < 0.3 |
| CN(C)C(=O)CSc1nc2ccc(N3C(=O)c4ccccc4C3=O)cc2s1 | 3.1 (≈ 7.8 µM) |
| O=C(NCC(=O)N1CCN(c2ccccc2)CC1)c1cccs1 | > 49.4 |

| Structure (SMILES) | solubility kinetic [µg/mL] |
| --- | --- |
| O=C(NC1CCCC1)C(c1cc2c(cc1[N+](=O)[O-])OCO2)N1CCCC1 (stereo not given) | 40.6 (≈ 112 µM) |
| O=C(O)CC(NC(=O)C1CCCCC1)c1ccc(OC2CCCC2)cc1 (stereo not given) | 53.4 (≈ 149 µM) |
| Nc1ccc(Oc2ncccn2)c(Cl)c1 | > 33.2 |
| CCCc1nc2ccccc2c(=O)n1CC(=O)c1ccc(F)cc1 | 2.2 (≈ 6.78 µM) |
| O=C(COc1ccc(Br)cc1)N(CCO)CCO | 34.5 (≈ 108 µM) |
| Cc1ccc(S(=O)(=O)NCCC(=O)NCCc2ccc(S(N)(=O)=O)cc2)cc1C | > 65.9 |
| CC(=O)c1ccc(S(=O)(=O)Nc2ccc(S(=O)(=O)N3CCCCC3)cc2)cc1 | > 63.4 |
| Cc1cccnc1NC(=O)c1ccc(Cl)c(S(=O)(=O)N2CCCC2)c1 | > 57 |
| O=S(=O)(Nc1cccc(CO)c1)c1cccs1 | > 40.4 |
| CC(C)CC(=O)N1CCN(C(=O)c2ccco2)CC1 | > 39.6 |
| COP(=O)(NS(=O)(=O)c1ccccc1)OC | 33.9 (≈ 128 µM) |
| COc1ccccc1C1CC(=O)Nc2cc(C)c(C)cc21 (stereo not given) | < 0.6 |
| Cc1cccc(N2C(=O)C3C4C=CC(C5CC45)C3C2=O)n1 (stereo not given) | 36.5 (≈ 130 µM) |
| COc1cccc(NC(=O)C2COc3ccccc3O2)c1 (stereo not given) | > 42.8 |
| CC(C)CNC(=O)[C@H](Cc1ccccc1)NC(=O)c1cccs1 | 9.6 (≈ 29.1 µM) |
| CCCNC(=O)CN1CCC(c2nc3ccccc3[nH]2)CC1 | 34 (≈ 113 µM) |
| CC1CCN(C(=O)COC(=O)/C=C/c2ccco2)CC1 | > 41.6 |
| Cc1nc(N)nc(SCc2ccc([N+](=O)[O-])cc2)c1N | 16.1 (≈ 55.3 µM) |
| Oc1ccccc1-c1nc(NC2CCCC2)c2ccccc2n1 | < 0.2 |
| O=C(Cn1c(=O)oc2ccccc21)Nc1cccc(Cl)c1 | 2.1 (≈ 6.94 µM) |
| COC(=O)c1ccc(CSc2nc3ccccc3c(=O)n2C)o1 | 4.5 (≈ 13.6 µM) |
| CCN(C(=O)CSc1nc2ccc(C)cc2[nH]1)C1CCS(=O)(=O)C1 (stereo not given) | > 55.1 |
| COC(=O)c1cccc(NC(=O)C(C)(C)C)c1 | > 35.3 |
| CC1CCCCC1NC(=O)COC(=O)c1cc(=O)[nH]c2ccccc12 (stereo not given) | 6.8 (≈ 19.9 µM) |
